Source: patent US20120122822A1, “COMPOSITIONS FOR REDUCING BETA-AMYLOID-INDUCED NEUROTOXICITY COMPRISING BETA-SECRETASE INHIBITOR” (Phloronol, Inc., priority 2010, published 2012)
Read-outs that look alike come from different tables or passages of the source.

Legend:
N2a/APP cells = assay: Reduction of neurotoxicity, MTT cell viability assay; type: cell-based; settings: 10 μg/mL, 12 hrs
Protocol: For this, N2a/APP cells were subjected to an MTT assay, which is a measure of mitochondrial activity that converts 3-(4,5-dimethyl-thiazol-2-yl)-2,5-diphenyl-tetrazolium bromide (MTT) to formazan in living cells. N2a/APP cells were seeded at a density of 1×10^4 cells/well into 96-well plates, incubated for 24 hrs, and left for 12 hrs in serum-free DMEM-Opti-MEM. Thereafter, the samples listed in Table 5 were added at a final concentration of 10 μg/mL to each well (medium free of any of the samples was used for a negative control) and then incubated for 12 hrs. To each well was added approx. 10 μL of MTT (5 mg/ml in phosphate buffered saline (PBS) solution), followed by incubation at 37° C. for 4 hrs. Each well was measured for absorbance at 570 nm. Inhibitory activity against neurotoxicity was assessed by an increase rate of cell viability as calculated by the following equation.
Increase Rate of Cell Viability (%)=(S−C)/C×100
(§1) where C is the absorbance of a negative control and S is the absorbance of each sample.

[1] = test system: beta amyloid (Aβ) production in N2a/APP cells; assay: Inhibition of beta amyloid Aβ(1-42) production in nerve cells, immunoassay; type: cell-based; settings: read-out: Aβ Inhibition Rate (%)
Protocol: N2a/APP cells, used as a study model for neurodegenerative diseases (Wang X C, Zhang Y C, Chatterjie N, Grundke-Iqbal I, Iqbal K, Wang J Z. Neurochem Res (2008) 33:1138-1144), were employed to analyze the inhibition of beta amyloid (Aβ) production in nerve cells. N2a/APP cells were fixed onto 24-well plates (5×10^4 cells/well) containing a medium devoid of hygromycin B. The ingredients listed in Table 5 were added at a final concentration of 10 μg/mL to each well and incubated for 48 hrs. Secreted Aβ(1-42) was quantitatively analyzed with an Aβ(1-42) immunoassay kit (Biosource, Camarillo, Calif., USA). In this regard, the medium in each well was transferred into 96-well plates coated with an Aβ(1-42) antibody and then treated with a detection antibody. For this, after incubation at room temperature for 3 hrs, the medium was treated with HRP (horseradish peroxidase), an anti-rabbit antibody and stabilized chromogen to allow an antigen-antibody reaction. This reaction was terminated with a stop buffer before absorbance was read at 450 nm. For a negative control, no samples were added to the medium. Inhibitory effects on beta amyloid production were calculated according to the following equation and the results are summarized in Table 5, below.
Aβ Inhibition (%)=(C−S)/C×100
as §1

human recombinant BACE1 = molecular target: T1, human recombinant BACE1 (Homo sapiens, UniProt P56817); assay: β-secretase inhibition, human recombinant BACE1 assay kit (PanVera), fluorescence; type: biochemical; settings: for inhibition at 0.01 µM: read-out: BACE Inhibition at 10 nM; for IC50: β-secretase (BACE)
T1 construct: purchased PanVera, Wis., USA
Protocol: The primary 1,3,5-trihydroxybenzene polymer products obtained under the various conditions were assayed for inhibitory activity against β-secretase. For this purpose, a human recombinant BACE1 assay kit (PanVera, Wis., USA) was used according to the manufacturer's instructions.
For a negative control, an assay buffer containing none of the samples was used instead of the sample solution. In the absence of light, each reaction mixture was allowed to react at 25° C. for 60 min. Thereafter, while a light beam at 528 nm was applied to the reaction mixture, fluorescent light at 620 nm was detected with Bio-Tek Microplate fluorescence reader FLx 800 (VT, USA). Inhibition activity was calculated according to the following formula:
Inhibition (%)=[1−{(S−S0)/(C−C0)}]×100
C is a fluorescent intensity after reaction of the negative control for 60 min,
C0 is an initial fluorescent intensity of the negative control,
S is a fluorescent intensity after reaction of each sample for 60 min, and
S0 is an initial fluorescent intensity of each sample.

[2] = N2a/APP cells, 10 μg/mL, 48 hrs, secreted Aβ(1-42)

T1 sequence (P56817 46-501): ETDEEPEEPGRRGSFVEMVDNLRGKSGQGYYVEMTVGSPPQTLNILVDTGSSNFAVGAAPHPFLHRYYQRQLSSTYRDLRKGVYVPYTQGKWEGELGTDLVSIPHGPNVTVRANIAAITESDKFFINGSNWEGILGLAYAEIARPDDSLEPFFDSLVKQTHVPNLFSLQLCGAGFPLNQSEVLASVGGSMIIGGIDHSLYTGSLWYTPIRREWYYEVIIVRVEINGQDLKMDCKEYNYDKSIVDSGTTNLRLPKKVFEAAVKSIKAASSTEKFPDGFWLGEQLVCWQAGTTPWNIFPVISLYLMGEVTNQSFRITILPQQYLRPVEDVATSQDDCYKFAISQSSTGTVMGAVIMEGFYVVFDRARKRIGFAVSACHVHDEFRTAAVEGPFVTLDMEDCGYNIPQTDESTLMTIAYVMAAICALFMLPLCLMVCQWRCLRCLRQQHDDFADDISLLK

| SMILES | Increase Rate of Cell Viability (%) (N2a/APP cells) | inhibition at 10 µg/mL ([1]; 48 h) | inhibition at 0.01 µM (human recombinant BACE1) | IC50 (human recombinant BACE1) | inhibition at 10 µg/mL [1, 2] |
| --- | --- | --- | --- | --- | --- |
| C[C@H](NC(=O)Cc1cc(F)cc(F)c1)C(=O)N[C@H]1N=C(c2ccccc2)c2ccccc2N(C)C1=O [C. Ex. 3, (S)-2-[2-(3,5-Difluoro-phenyl)-acetylamino]-N-((S)-1-methyl-2-oxo-5-phenyl-2,3-dihydro-1H-benzo[e][1,4]diazepin-3-yl)-propionamide] | −5% | 22% | – | – | – |
| Oc1cc(O)cc(Oc2c(O)cc(O)c3c2Oc2c(cc4oc5cc(O)cc(O)c5c4c2O)O3)c1 [Chemical Formula 4-3] | – | – | 70% | 4 nM | – |
| Oc1cc(O)cc(Oc2c(O)cc3c(c2O)Oc2c(c(O)cc4oc5c(Oc6cc(O)cc(O)c6)c(O)cc(O)c5c24)O3)c1 [Chemical Formula 3-6] | 22% | – | 94% | 1.3 nM | 30% |
| Oc1cc(O)c2c(c1)Oc1c(cc3oc4cc(O)cc(O)c4c3c1O)O2 [Chemical Formula 4-1] | – | – | 65% | 4.7 nM | – |
| Oc1ccc(C=Cc2cc(O)cc(O)c2)cc1 [C. Ex. 7, resveratrol] | 10% | 13% | – | – | – |
| O=c1c(O)c(-c2ccc(O)c(O)c2)oc2cc(O)cc(O)c12 [C. Ex. 6, quercetin] | 12% | 17% | – | – | – |
| Oc1cc(O)c2c(c1)Oc1c(O)cc3oc4cc(O)cc(O)c4c3c1O2 [Chemical Formula 3-1] | – | – | 53% | 5.8 nM | – |
| Oc1cc(O)cc(Oc2c(O)cc(O)c3c2Oc2c(O)cc4oc5cc(O)cc(O)c5c4c2O3)c1 [Chemical Formula 3-4] | – | – | 90% | 1.5 nM | – |
| Oc1cc(O)cc(Oc2c(O)cc(O)c3c2oc2cc(O)c4c(c23)Oc2c(O)cc(O)cc2O4)c1 [Chemical Formula 3-2] | – | – | 87% | 1.7 nM | – |
| C[C@H](NC(=O)Cc1cc(F)cc(F)c1)C(=O)N[C@@H]1C(=O)N(C)c2ccccc2-c2ccccc21 [C. Ex. 2, (S)-2-[2-(3,5-Difluoro-phenyl)-acetylamino]-N-((S)-5-methyl-6-oxo-6,7-dihydro-5H-dibenzo[b,d]azepin-7-yl)-propionamide] | 5% | – | – | – | 21% |
| CC(C)Cc1ccc(C(C)C(=O)O)cc1 (centres unmarked) [C. Ex. 4, ibuprofen] | 2% | – | – | – | 17% |
| Oc1cc(O)cc(Oc2c(O)cc(O)c3c2oc2cc4c(c(O)c23)Oc2cc(O)cc(O)c2O4)c1 [Chemical Formula 4-2] | – | – | 77% | 3.6 nM | – |
| Cc1ccc(-c2cc(C(F)(F)F)nn2-c2ccc(S(N)(=O)=O)cc2)cc1 [C. Ex. 5, celecoxib] | 15% | – | – | – | 19% |
| Oc1cc(O)cc(Oc2c(O)cc(O)c3c2Oc2c(cc4oc5c(Oc6cc(O)cc(O)c6)c(O)cc(O)c5c4c2O)O3)c1 [Chemical Formula 4-4] | 21% | – | 86% | 2.4 nM | 27% |
